According to the NIST ThermoML archive (doi:10.1016/j.fluid.2013.06.050):
± gives the expanded uncertainty stated by the source.

Key:
[1] = refractive index (Na D-line) (dimensionless); xn = mol fraction of the nth substance listed; conditions: 298.15 K, 101 kPa, Liquid, Standard Abbe refractometry
[2] = xn = mol fraction of the nth substance listed; conditions: 298.15 K, 101 kPa, Liquid
[3] = Vibrating tube method, x1 = 0.2
[4] = Vibrating tube method, x1 = 0.25
[5] = Vibrating tube method, x1 = 0.16

SMILES: OCCCCO [1,4-butanediol] + C[N+](C)(C)CCO.[Cl-]
- refractive index ([1]; x2 = 0.25): 1.4656 ± 0.0011
- refractive index ([1]; x2 = 0.28): 1.468 ± 0.0011
- refractive index ([1]; x2 = 0.34): 1.4718 ± 0.0011
- mass density ([2]; vibrating tube, x2 = 0.25): 1061 ± 12 kg/m3
- mass density ([2]; vibrating tube, x2 = 0.28): 1067 ± 12 kg/m3
- mass density ([2]; vibrating tube, x2 = 0.34): 1073.1 ± 12 kg/m3

SMILES: CCN(CC)CCO.Cl [2-(diethylamino)ethanol hydrochloride] + OCC(O)CO
- refractive index ([1]; x2 = 0.2): 1.4812 ± 0.0011
- refractive index ([1]; x2 = 0.25): 1.4825 ± 0.0011
- refractive index ([1]; x2 = 0.34): 1.4853 ± 0.0011
- mass density ([2]; vibrating tube, x1 = 0.2): 1220.4 ± 12 kg/m3
- mass density ([2]; vibrating tube, x1 = 0.25): 1205.7 ± 12 kg/m3
- mass density ([2]; vibrating tube, x1 = 0.34): 1183.6 ± 12 kg/m3

SMILES: CCN(CC)CCO.Cl [2-(diethylamino)ethanol hydrochloride] + OCCO
- refractive index ([1]; x1 = 0.2): 1.4574 ± 0.0011
- refractive index ([1]; x1 = 0.25): 1.462 ± 0.0011
- refractive index ([1]; x1 = 0.28): 1.465 ± 0.0011
- mass density [2, 3]: 1103.7 ± 12 kg/m3
- mass density [2, 4]: 1101.8 ± 12 kg/m3
- mass density ([2]; Vibrating tube method, x1 = 0.28): 1100.6 ± 12 kg/m3

SMILES: C[N+](C)(C)CCO.[Cl-] [choline chloride] + OCC(O)CO
- refractive index ([1]; x1 = 0.25): 1.4818 ± 0.0011
- refractive index ([1]; x1 = 0.34): 1.4852 ± 0.0011
- refractive index ([1]; x1 = 0.5): 1.491 ± 0.0011
- mass density ([2]; vibrating tube, x1 = 0.25): 1203.5 ± 12 kg/m3
- mass density ([2]; vibrating tube, x1 = 0.34): 1192.4 ± 12 kg/m3
- mass density ([2]; vibrating tube, x1 = 0.5): 1162.2 ± 12 kg/m3

SMILES: C[N+](C)(C)CCO.[Cl-] [choline chloride] + OCCO
- refractive index ([1]; x1 = 0.28): 1.4611 ± 0.0011
- refractive index ([1]; x1 = 0.34): 1.465 ± 0.0011
- refractive index ([1]; x1 = 0.36): 1.4678 ± 0.0011
- mass density ([2]; vibrating tube, x1 = 0.28): 1117.3 ± 12 kg/m3
- mass density ([2]; vibrating tube, x1 = 0.34): 1117.7 ± 12 kg/m3
- mass density ([2]; vibrating tube, x1 = 0.36): 1118.4 ± 12 kg/m3

SMILES: C[P+](c1ccccc1)(c1ccccc1)c1ccccc1.[Br-] [methyltriphenylphosphonium bromide] + OCC(O)CO
- refractive index ([1]; x1 = 0.2): 1.5597 ± 0.0011
- refractive index ([1]; x1 = 0.25): 1.5715 ± 0.0011
- refractive index ([1]; x1 = 0.34): 1.5917 ± 0.0011
- mass density [2, 3]: 1289.3 ± 12 kg/m3
- mass density [2, 4]: 1298 ± 12 kg/m3
- mass density ([2]; Vibrating tube method, x1 = 0.34): 1307.1 ± 12 kg/m3

SMILES: C[P+](c1ccccc1)(c1ccccc1)c1ccccc1.[Br-] [methyltriphenylphosphonium bromide] + OCCO
- refractive index ([1]; x1 = 0.16): 1.5398 ± 0.0011
- refractive index ([1]; x1 = 0.2): 1.553 ± 0.0011
- refractive index ([1]; x1 = 0.25): 1.5678 ± 0.0011
- mass density [2, 5]: 1220.2 ± 12 kg/m3
- mass density [2, 3]: 1233 ± 12 kg/m3
- mass density [2, 4]: 1250.4 ± 12 kg/m3

SMILES: C[P+](c1ccccc1)(c1ccccc1)c1ccccc1.[Br-] [methyltriphenylphosphonium bromide] + OCCOCCOCCO
- refractive index ([1]; x1 = 0.16): 1.5178 ± 0.0011
- refractive index ([1]; x1 = 0.2): 1.5263 ± 0.0011
- refractive index ([1]; x1 = 0.25): 1.5417 ± 0.0011
- mass density [2, 5]: 1186 ± 12 kg/m3
- mass density [2, 3]: 1199.2 ± 12 kg/m3
- mass density [2, 4]: 1216.4 ± 12 kg/m3
